Tested on: Vero-E6 cells
Assay: cells
Type: cell-based
Details: not given

Row | Structure (SMILES) | PL_Result
1 | CC(C)C[C@H](NC(=O)[C@H](Cc1ccccc1)NC(=O)CNC(=O)[C@H](C)NC(=O)[C@@H](N)Cc1ccc(O)cc1)C(=O)O [SPE_K57927309] | -0.1658

Same assay, conditions: Chlorocebus sabaeus, Vero C1008, 24 h, read-out: PL_Result

Row | Structure (SMILES) | activation at 10 µM
2 | COC(=O)CCC(=O)CN [SPE_K01292611] | -7.57%
3 | COc1cc2ncnc(Nc3ccc(F)c(Cl)c3)c2cc1OCCCN1CCOCC1 [SPE_K64052750] | -10.1%
4 | Oc1c(I)cc(Cl)c2cccnc12 [SPE_K09255212] | 3.03%
5 | CNC(=O)c1ccccc1Nc1nc(Nc2ccc(N3CCOCC3)cc2OC)ncc1Cl [SPE_K21025364] | 15.8%
6 | CCN1C[C@H](C)n2c(c(O)c3c(=O)n(Cc4ccc(F)c(Cl)c4)nc(C(=O)NC)c32)C1=O [SPE_K03128512] | 7.85%
7 | Oc1cc(Cl)ccc1Oc1ccc(Cl)cc1Cl [SPE_K41731458] | 0.158%
8 | O=C1Nc2cc(Cl)c(Cl)cc2N2CCNCC12 (centres unmarked) [SPE_A62021152] | -10.8%
9 | N#Cc1cccc(-c2nc(-c3cccnc3)no2)c1 [SPE_K40176866] | -7.54%
10 | Cc1cc(C)c2nc(-c3ccccn3)cc(C(=O)Nc3ccc(S(=O)(=O)Nc4onc(C)c4C)cc3)c2c1 [SPE_K27539181] | 7.09%
11 | CC(C)(C)C(=O)OCOC(=O)C1N2C(=O)CC2S(=O)(=O)C1(C)C (centres unmarked) [SPE_A63431791] | -1.74%
12 | CCN(CC)CCOC(=O)C(c1ccccc1)C1CCCCC1 (centres unmarked) [SPE_A22267103] | 53.9%
13 | Cn1cc(-c2cc(Oc3cc(F)c(NC(=O)C4(C(=O)Nc5ccccc5)CC4)cc3F)ccn2)cn1 [SPE_K49246350] | -0.953%
14 | CCCCOc1nc(N)c2c(n1)N(Cc1cccc(CN3CCCC3)c1)CC(=O)N2 [SPE_K73585091] | -10.5%
15 | COc1ccc2cc([C@H](C)C(=O)O)ccc2c1 [SPE_K59197931] | -3.31%
16 | C[C@H](O)[C@H](O)[C@H]1CNc2[nH]c(N)nc(=O)c2N1 [SPE_K36859431] | -1.35%
17 | CCOC(=O)C1=C[C@]2(CC)CCCN3CCc4c(n1c1ccccc41)[C@@H]32 [SPE_K53318339] | -10.5%
18 | Cc1ccc2nc(N)nc(O)c2c1Sc1ccncc1 [SPE_K36636143] | 2.73%
19 | COC(F)(F)C(Cl)Cl [SPE_K06152156] | -2.25%
20 | CC[n+]1c(-c2ccccc2)c2cc(N)ccc2c2ccc(N)cc21 [SPE_K28354016] | 9.76%
21 | COc1ccc(CC2NCCc3cc(OC)c(OC)cc32)cc1OC (centres unmarked) [SPE_A91831168] | -15.9%
22 | CC(=O)O[C@]1(C(C)=O)CC[C@H]2[C@@H]3CCC4=CC(=O)CCC4=C3[C@@H](c3ccc(N(C)C)cc3)C[C@@]21C [SPE_K76197012] | -4.74%

Row | Structure (SMILES) | activation at 10 µM
23 | CCn1ccnc1CC1COc2ccccc2O1 (centres unmarked) [SPE_A10903566] | 2.21%
24 | CCCNC(=O)Nc1ccc(Oc2ncnc3cc(OC)c(OC)cc23)cc1Cl [SPE_K90993449] | -9.86%
25 | CC(C)[C@H](CO)Nc1nc(Nc2ccc(C(=O)O)c(Cl)c2)c2ncn(C(C)C)c2n1 [SPE_K41564320] | 1.13%
26 | COc1cc2ncn(-c3cc(OCc4ccccc4C(F)(F)F)c(C(N)=O)s3)c2cc1OC [SPE_K90382497] | -7.16%
27 | O=C(Cn1c(=O)sc2ccc(Cl)cc21)N1CCN(CCO)CC1 [SPE_K27293958] | 2.56%
28 | NC[C@H]1O[C@H](O[C@H]2C(O[C@@H]3O[C@H](CO)[C@@H](O)[C@H]3O)[C@@H](O)[C@H](N)C[C@@H]2N)[C@H](N)[C@@H](O)[C@@H]1O (some centres unmarked) [SPE_A03826781] | -7.3%
29 | c1ccc(CCCCN2CCC(c3ccccc3)CC2)cc1 [SPE_K78061844] | 42.6%
30 | OC[C@H]1O[C@@H](c2ccc(Cl)c(Cc3ccc(O[C@H]4CCOC4)cc3)c2)[C@H](O)[C@@H](O)[C@@H]1O [SPE_K53765467] | -10%
31 | c1ccc(-c2n[nH]c3c2oc2ccccc23)cc1 [SPE_K16664969] | -3.59%
32 | CNC[C@H](O)c1cccc(O)c1 [SPE_K73381542] | 3.82%
33 | CC(C)CNc1nc(-c2cccc3ncccc23)cn2c(-c3ccc(C(=O)NC4CC4)cc3)cnc12 [SPE_K18530250] | -11.5%
34 | O=C(O)c1ccc2c(c1)nc(Nc1cccc(Cl)c1)c1ccncc12 [SPE_K81458380] | 1.48%
35 | Oc1ccc([C@H]2COc3cc(O)ccc3C2)cc1 [SPE_K54847683] | -12.7%
36 | NC(C(=O)O)c1cc(O)cc(O)c1 (centres unmarked) [SPE_A20589515] | 2.18%
37 | Cc1cc(/C=C/C#N)cc(C)c1Nc1ccnc(Nc2ccc(C#N)cc2)n1 [SPE_K06240250] | -8.07%
38 | CCOc1cc(N2CCC(O)CC2)ccc1Nc1ncc2c(n1)N(C)c1ccccc1C(=O)N2C [SPE_K50387473] | -6.3%
39 | Cn1c2c(c3ccccc31)CCNCC2 [SPE_K16551401] | 7.36%
40 | CCC/C=C1\OC(=O)C2=C1CCC=C2 [SPE_K48875051] | -12.3%
41 | CCCCc1ccc2[nH]c(NC(=O)OC)nc2c1 [SPE_K02407574] | -11.6%
42 | NC[C@H](CC(=O)O)c1ccc(Cl)cc1 [SPE_K62353271] | -10.2%
43 | COc1ccc(F)c(F)c1C(=O)c1cnc(NC2CCN(S(C)(=O)=O)CC2)nc1N [SPE_K52233191] | -6.09%

Row | Structure (SMILES) | activation at 10 µM
44 | CC(C)(C)NCC(O)c1ccccc1Cl (centres unmarked) [SPE_A37441042] | 4.82%
45 | Cc1c(N(C)C)c(=O)n(-c2ccccc2)n1C [SPE_K12568846] | -3.72%
46 | C=CCc1cc(OC)c(O)c(C(=O)NCCO)c1 [SPE_K60102752] | -3.89%
47 | Cc1c(Cl)cccc1S(=O)(=O)Nc1nc(NCCc2ccccc2)nc2c1CN(Cc1ccccc1)CC2 [SPE_K35772771] | -25%
48 | COCCN1CCC(C(=O)NO)(S(=O)(=O)c2ccc(Oc3ccc(OC(F)(F)F)cc3)cc2)CC1 [SPE_K51102532] | -13.6%
49 | COc1ccccc1N1CCN(CCN(C(=O)C2CCCCC2)c2ccccn2)CC1 [SPE_K69812556] | -15.3%
50 | NCC(=O)Nc1ccc(-n2nc(C(F)(F)F)cc2-c2ccc3c(ccc4ccccc43)c2)cc1 [SPE_K90497590] | -14.6%
51 | CC(C)Oc1ccc(-c2nc(-c3cccc4c3CC[C@@H]4NCCO)no2)cc1C#N [SPE_K46625559] | -0.603%
52 | C=C(C)[C@@H]1CC[C@]2(C(=O)O)CC[C@]3(C)[C@H](CC[C@@H]4[C@@]5(C)CC[C@H](O)C(C)(C)[C@@H]5CC[C@]43C)[C@@H]12 [SPE_K45401373] | -11.4%
53 | Nc1ccn(C[C@@H](CO)OCP(=O)(O)O)c(=O)n1 [SPE_K96153583] | -12.6%
54 | O=S(=O)(NCC1CC1)c1ccc(Nc2nccc(N3CCCc4cc(O)ccc43)n2)cc1 [SPE_K94659840] | 3.48%
55 | CCCCCCCCCCC(=O)O[C@H]1CC[C@H]2[C@@H]3CCC4=CC(=O)CC[C@]4(C)[C@H]3CC[C@]12C [SPE_K70650177] | -4.09%
56 | C[C@@H](c1ncncc1F)[C@](O)(Cn1cncn1)c1ccc(F)cc1F [SPE_K06557128] | -4.59%
57 | COc1cc(/C=C/C(=O)O)ccc1O [SPE_K66295376] | -10.8%
58 | O=C(O)[C@H](Cc1c[nH]c2ccccc12)N1C(=O)c2ccccc2C1=O [SPE_K89391146] | -6.19%
59 | O=C1C=CC[C@@H]2[C@H]3CCCN4CCC[C@@H](CN12)[C@@H]34 [SPE_K66845263] | -5.47%
60 | CCOC(=O)c1cc2ccc(O)cc2oc1=O [SPE_K53438416] | -0.478%
61 | CC1=CC[C@@H](C(C)(C)O)C[C@@H]1O [SPE_K58262380] | -11.5%
62 | COc1ccc(C2C(=O)c3ccccc3C2=O)cc1 [SPE_K47458712] | -11.2%
63 | C[C@@H]1CN(CCCn2c3ccccc3c3ccccc32)C[C@H](C)N1 [SPE_K70490179] | 109%
64 | CC(C)c1c(NC(=O)Nc2ccc(Cl)cc2)c(=O)n(-c2ccccc2)n1C [SPE_K16497916] | -9.16%

Row | Structure (SMILES) | activation at 10 µM
65 | c1ccc(Cn2c(-c3ccc(OC[C@H](C4CCNCC4)n4c(-c5ccccc5)nc5ccccc54)cc3)nc3ccccc32)cc1 [SPE_K90830492] | 1.3%
66 | COc1cc2c(cc1OC)[C@@H]1CC(=O)[C@@H](CC(C)C)CN1CC2 [SPE_K95739795] | -5.22%
67 | C=CC(=O)N1CCC(Oc2cc3c(Nc4ccc(Cl)c(Cl)c4F)ncnc3cc2OC)CC1 [SPE_K50010139] | -3.41%
68 | CC(=O)Nc1cccc(-n2c(=O)n(C3CC3)c(=O)c3c(Nc4ccc(I)cc4F)n(C)c(=O)c(C)c32)c1 [SPE_K12343256] | -1.89%
69 | CN1Cc2c(C(=O)OC(C)(C)C)ncn2-c2ccsc2C1=O [SPE_K80778372] | 4.64%
70 | Cn1ncc2c(N3CCOCC3)nc(-c3cccc(O)c3)nc21 [SPE_K15858023] | -6.72%
71 | Cc1ncc(CO)c(C=O)c1O [SPE_K76204040] | -1.79%
72 | NCCCCN [SPE_K75282878] | 0.35%
73 | OC[C@H]1O[C@@H](OCCc2ccc(O)cc2)[C@H](O)[C@@H](O)[C@@H]1O [SPE_K66030860] | -4.58%
74 | O=C(CC(c1ccccc1)c1ccccc1)N1CCN(C(c2ccccc2)c2ccccc2)CC1 [SPE_K16037980] | -13.7%
75 | Cn1cc(-c2ccc(F)c(C(F)(F)F)c2)nc1C1CCN(c2ncnc3[nH]ncc23)CC1 [SPE_K21833260] | -1.12%
76 | N[C@@H](CC(=O)N1CCn2c(nnc2C(F)(F)F)C1)Cc1n[nH]c2c(F)c(F)ccc12 [SPE_K04035716] | -1.31%
77 | O=C(O)C(Cc1ccccc1)NCc1ccc(Cl)cc1 (centres unmarked) [SPE_A57806482] | 2.25%
78 | OCCN1C[C@@H](O)[C@@H](O)C(O)C1CO (some centres unmarked) [SPE_A63310107] | -7.51%
79 | CN1CCC(=C2c3ccccc3CC(=O)c3sccc32)CC1 [SPE_K28936863] | -4.71%
80 | N#Cc1ccc(N2CCN(C(=O)COc3ccc4[nH]cc(CCN)c4c3)CC2)cc1 [SPE_K31092604] | 1.38%
81 | CCOc1c2c(c(OCC)c3ccccc13)C(=O)N(c1ccc(CC(=O)NS(=O)(=O)c3ccccc3)cc1)C2 [SPE_K50005760] | -9.22%
82 | CC1Cc2ccccc2N1NC(=O)c1ccc(Cl)c(S(N)(=O)=O)c1 (centres unmarked) [SPE_A95869247] | -11.5%
83 | Nc1nc2ccc(Cl)cc2c2nc(-c3ccco3)nn12 [SPE_K49049886] | 7.39%

Source: publication PMC13083723 (Patterns, 2026)
